Source: patent US9258995B2, “Organ cold storage composition and methods of use” (BOARD OF TRUSTEES OF THE UNIVERSITY OF ARKANSAS, priority 2009, dated 2016)

What was measured:
Format in all cases: cell-based, rat
NRK cells [1] = assay: MitoSOX Red mitochondrial superoxide generation, cold storage in vitro model; conditions: 4 h CS at 4° C. in UW, 1 μM
Protocol: Normal rat kidney proximal tubular cells (NRK-52E; American Type Culture Collection, Manassas, Va.) were maintained in six-well 100 or 150-mm, or 150-mm plates in a humidified incubator gassed with 5% CO2 and 95% air at 37° C. in DMEM (Invitrogen, Carlsbad, Calif.) containing 5% fetal calf serum (FCS). Cells were grown to 60% confluence and divided into four treatment groups: 1) untreated (Untx), 2) CS, 3) CS+MitoQ, and 4) CS+DecylTPP. Untreated cells remained at 37° C. in DMEM containing 5% FCS (group 1). […]
MitoSOX Red (Invitrogen) was used to measure mitochondrial superoxide generation during CS. […] Fluorescence was visualized using an Eclipse E800 microscope (Nikon, Melville, N.Y.) with a rhodamine filter using a water immersion objective (60×). Fluorescent images of NRK cells were captured with equal exposure times and quantified by averaging the mean intensity fluorescence of five random cells in three different fields using Nikon N is Elements software. In separate experiments, cells were grown on coverslips, preloaded with MitoSOX Red before treatment (groups 1-4), and evaluated for mitochondrial superoxide generation using a Hitachi F-2500 spectrofluorometer (Hitachi, Tokyo, Japan) equipped with a coverslip holder using two different excitation wavelengths: 396 and 510 nm with the emission measured at 580 nm as previously described. […]

NRK cells [2] = assay: Nitrotyrosine immunocytochemistry during CS; conditions: 4 h CS, 1 μM
Protocol: (§1) Normal rat kidney proximal tubular cells (NRK-52E; American Type Culture Collection, Manassas, Va.) were maintained in six-well 100 or 150-mm, or 150-mm plates in a humidified incubator gassed with 5% CO2 and 95% air at 37° C. in DMEM (Invitrogen, Carlsbad, Calif.) containing 5% fetal calf serum (FCS). Cells were grown to 60% confluence and divided into four treatment groups: 1) untreated (Untx), 2) CS, 3) CS+MitoQ, and 4) CS+DecylTPP. Untreated cells remained at 37° C. in DMEM containing 5% FCS (group 1). CS was initiated by washing cells with cold PBS (Invitrogen) twice and storing them in UW/Viaspan solution alone (4 h at 4° C.) (group 2), CS+MitoQ (1 μM) (group 3), or CS+DecylTPP (1 μM) (group 4). In separate experiments, cells were exposed to CS plus RW by replacing UW solution alone or UW solution containing MitoQ or DecylTPP with DMEM containing 5% FCS overnight (18 h at 37° C.).
(§2) NRK cells (groups 1-4) were assessed for nitrotyrosine formation as previously described. […] Nitrotyrosine staining was evaluated and captured with equal exposure times using a Nikon Eclipse 800 microscope (40×oil). Images were quantified by averaging the mean intensity fluorescence of five random cells in three different fields using Nikon N is Elements software. Renal tissue sections were assessed for the presence of nitrotyrosine protein adducts by nitrotyrosine immunohistochemistry. […]

[3] = test system: mitochondrial respiratory complex II; assay: Mitochondrial respiratory complex activity, NRK cell mitochondria after CS; conditions: NRK cells, 4-h CS, 1 μM
Protocol: as §1
(§3) NRK cell and rat kidney mitochondria were isolated by centrifugation on a sucrose density gradient. The activity of mitochondrial respiratory complexes I, II, III, or IV were assayed spectrophotometrically using 100 μg of mitochondrial protein at 30° C. as previously described.

[4] = test system: mitochondrial respiratory complex I; assay: as above; conditions: NRK cells, 4-h CS, 1 μM
Protocol: as §1, §3

NRK cells [5] = assay: Nitrotyrosine immunocytochemistry, CS plus rewarming; conditions: 4-h CS plus overnight (18 h) RW, 1 μM added during CS
Protocol: as §1, §2

NRK cells [6] = assay: Available nitric-oxide levels, CS NRK cell model; conditions: 4-h CS (data not shown)
From the text: Nitric oxide is a free radical that is well known to interact with superoxide to form peroxynitrite. It is generated by nitric-oxide synthase (NOS) and is an important signaling molecule in many physiological processes. Few reports have evaluated the effect of cold ischemia alone on NOS protein levels or activity.

COC1=C(OC)C(=O)C(CCCCCCCCCC[P+](c2ccccc2)(c2ccccc2)c2ccccc2)=C(C)C1=O [MitoQ, mitoquinone]
CS-induced mitochondrial superoxide generation (MitoSOX Red) (NRK cells [1]): significant protection
attenuation of nitrotyrosine formation (NRK cells [2]): ~2 fold
complex II inactivation [3]: completely prevented
complex I inactivation [4]: completely prevented
nitrotyrosine staining during CS.RW (NRK cells [5]): attenuated nitrotyrosine staining significantly
available nitric-oxide levels (NRK cells [6]): no effect
